Data published in patent publication EP1976513B1 (priority 2006, dated 2007).
Where “and” joins values, the source holds several entries; their conditions need not be identical. Equal entries are not always repeated.

These molecules were tested against human serotonin reuptake transporter (Homo sapiens, UniProt P31645) (assay: cell-based). Conditions: recombinant human serotonin transporter (SERT); read-out: Human IC50 (nM) hSERT.
Sequence of human serotonin reuptake transporter (P31645 whole entry): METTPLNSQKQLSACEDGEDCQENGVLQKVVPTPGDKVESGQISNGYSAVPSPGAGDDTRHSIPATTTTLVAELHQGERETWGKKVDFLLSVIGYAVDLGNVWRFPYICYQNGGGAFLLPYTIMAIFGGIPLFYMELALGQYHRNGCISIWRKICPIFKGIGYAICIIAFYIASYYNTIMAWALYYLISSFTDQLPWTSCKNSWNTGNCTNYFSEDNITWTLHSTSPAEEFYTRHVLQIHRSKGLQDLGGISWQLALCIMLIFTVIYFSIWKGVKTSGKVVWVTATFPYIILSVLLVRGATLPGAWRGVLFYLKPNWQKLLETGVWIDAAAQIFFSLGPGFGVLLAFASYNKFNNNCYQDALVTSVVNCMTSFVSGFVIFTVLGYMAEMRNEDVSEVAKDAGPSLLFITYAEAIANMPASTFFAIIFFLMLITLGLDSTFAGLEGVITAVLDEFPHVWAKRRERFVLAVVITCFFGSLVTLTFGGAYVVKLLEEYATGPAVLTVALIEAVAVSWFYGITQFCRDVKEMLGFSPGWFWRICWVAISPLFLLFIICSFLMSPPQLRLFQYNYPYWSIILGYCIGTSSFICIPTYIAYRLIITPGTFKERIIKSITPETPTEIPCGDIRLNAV
Work on `CN(C)CC1(c2ccc3c(c2)OCO3)CCC(O)CC1` (centres unmarked) [Compound 238, 4-(benzo[d][1,3]dioxol-5-yl)-4-((dimethylamino)methyl)cyclohexanol] yielded an IC50 of 1180 nM. `CNCC1(c2ccc3c(c2)OCO3)CCC(C)(O)CC1` (centres unmarked) [Compound 239, 4-(benzo[d][1,3]dioxol-5-yl)-1-methyl-4-((methylamino)methyl)cyclohexanol] showed an IC50 of 8660 nM. For `CN(C)CC1(c2ccc3c(c2)OCO3)CCC(C)(O)CC1` (centres unmarked) [Compound 240, 4-(benzo[d][1,3]dioxol-5-yl)-4-((dimethylamino)methyl)-1-methylcyclohexanol], the IC50 was 1810 nM. With `CNCC1(c2ccc3c(c2)OCO3)CCC(C)(O)CC1` (centres unmarked) [Compound 241, 4-(benzo[d][1,3]dioxol-5-yl)-1-methyl-4-((methylamino)methyl)cyclohexanol] the IC50 was > 10000 nM. Molecule `CN(C)CC1(c2ccc3c(c2)OCO3)CCC(C)(O)CC1` (centres unmarked) [Compound 242, 4-(benzo[d][1,3]dioxol-5-yl)-4-((dimethylamino)methyl)-1-methylcyclohexanol] has an IC50 of 7660 nM. `CNCC1(c2ccc3ccccc3c2)CCC(O)(CF)CC1` (centres unmarked) [Compound 243, 1-(fluoromethyl)-4-((methylamino)methyl)-4-(naphthalen-2-yl)cyclohexanol] showed an IC50 of 26 nM. Work on `CN(C)CC1(c2ccc3ccccc3c2)CCC(O)(CF)CC1` (centres unmarked) [Compound 244, 4-((dimethylamino)methyl)-1-(fluoromethyl)-4-(naphthalen-2-yl)cyclohexanol] yielded an IC50 of 14 nM. `CNCC1(c2ccc3ccccc3c2)CCC(O)(CF)CC1` (centres unmarked) [Compound 245, 1-(fluoromethyl)-4-((methylamino)methyl)-4-(naphthalen-2-yl)cyclohexanol] showed an IC50 of 538 nM. `CN(C)CC1(c2ccc3ccccc3c2)CCC(O)(CF)CC1` (centres unmarked) [Compound 246, 4-((dimethylamino)methyl)-1-(fluoromethyl)-4-(naphthalen-2-yl)cyclohexanol] was tested, and the IC50 was 43 nM. `CN(C)CC1(c2ccc(OC(F)(F)F)cc2)CCC(C)(O)CC1` (centres unmarked) [Compound 248, 4-((dimethylamino)methyl)-1-methyl-4-(4-(trifluoromethoxy)phenyl)cyclohexanol] gave an IC50 of 159 nM. Work on `CNCC1(c2ccc3ccccc3c2)CCC(F)(F)CC1` [Compound 251, 1-(4,4-difluoro-1-(naphthalen-2-yl)cyclohexyl)-N-methylmethanamine] yielded an IC50 of 199 nM. For `CN(C)CC1(c2ccc3ccccc3c2)CCC(F)(F)CC1` [Compound 252, 1-(4,4-difluoro-1-(naphthalen-2-yl)cyclohexyl)-N,N-dimethylmethanamine], the IC50 was 11 nM and 12 nM. With `COC1CCC(CN)(c2ccc(Cl)c(Cl)c2)CC1` (centres unmarked) [Compound 255, (1-(3,4-dichlorophenyl)-4-methoxycyclohexyl)methanamine] the IC50 was 1420 nM. For `COC1CCC(CN)(c2ccc(Cl)c(Cl)c2)CC1` (centres unmarked) [Compound 257, (1-(3,4-dichlorophenyl)-4-methoxycyclohexyl)methanamine], the IC50 was 2080 nM. Work on `CNCC1(c2ccc(Cl)c(Cl)c2)CCC(OC)CC1` (centres unmarked) [Compound 259, 1-(1-(3,4-dichlorophenyl)-4-methoxycyclohexyl)-N-methylmethanamine] yielded an IC50 of 5890 nM. `CN(C)CC1(c2ccc(Cl)c(Cl)c2)CCC(O)CC1` (centres unmarked) [Compound 263, 4-(3,4-dichlorophenyl)-4-((dimethylamino)methyl)cyclohexanol] showed an IC50 of 674 nM. `CNCC1(c2ccc(Cl)c(Cl)c2)CCC(F)CC1` (centres unmarked) [Compound 264, 1-(1-(3,4-dichlorophenyl)-4-fluorocyclohexyl)-N-methylmethanamine] was tested, and the IC50 was 1050 nM. `NCC1(c2ccc(Cl)c(Cl)c2)CCC(Oc2ccccc2)CC1` (centres unmarked) [Compound 265, (1-(3,4-dichlorophenyl)-4-phenoxycyclohexyl)methanamine] showed an IC50 of 109 nM. With `NCC1(c2ccc(Cl)c(Cl)c2)CCC(F)(F)CC1` [Compound 267, (1-(3,4-dichlorophenyl)-4,4-difluorocyclohexyl)methanamine] the IC50 was 1290 nM. `CNCC1(c2ccc(Cl)c(Cl)c2)CCC2(CC1)OCCO2` [Compound 270, 1-(8-(3,4-dichlorophenyl)-1,4-dioxaspiro[4.5]decan-8-yl)-N-methylmethanamine] gave an IC50 of 469 nM. `CNCC1(c2ccc(Cl)c(Cl)c2)CCC(C)(O)CC1` (centres unmarked) [Compound 273, 4-(3,4-dichlorophenyl)-1-methyl-4-((methylamino)methyl)cyclohexanol] showed an IC50 of 830 nM. `CN(C)CC1(c2ccc(Cl)c(Cl)c2)CCC(C)(O)CC1` (centres unmarked) [Compound 274, 4-(3,4-dichlorophenyl)-4-((dimethylamino)methyl)-1-methylcyclohexanol] gave an IC50 of 809 nM.

The molecules below were run against T1, human dopamine reuptake transporter (Homo sapiens, UniProt Q01959) (assay: cell-based). Conditions: recombinant human dopamine transporter (DAT); read-out: Human IC50 (nM) hDAT.
T1 construct: expressed in transfected cells; host or cells: CHO-K1 or HEK293
T1 sequence (Q01959 whole entry): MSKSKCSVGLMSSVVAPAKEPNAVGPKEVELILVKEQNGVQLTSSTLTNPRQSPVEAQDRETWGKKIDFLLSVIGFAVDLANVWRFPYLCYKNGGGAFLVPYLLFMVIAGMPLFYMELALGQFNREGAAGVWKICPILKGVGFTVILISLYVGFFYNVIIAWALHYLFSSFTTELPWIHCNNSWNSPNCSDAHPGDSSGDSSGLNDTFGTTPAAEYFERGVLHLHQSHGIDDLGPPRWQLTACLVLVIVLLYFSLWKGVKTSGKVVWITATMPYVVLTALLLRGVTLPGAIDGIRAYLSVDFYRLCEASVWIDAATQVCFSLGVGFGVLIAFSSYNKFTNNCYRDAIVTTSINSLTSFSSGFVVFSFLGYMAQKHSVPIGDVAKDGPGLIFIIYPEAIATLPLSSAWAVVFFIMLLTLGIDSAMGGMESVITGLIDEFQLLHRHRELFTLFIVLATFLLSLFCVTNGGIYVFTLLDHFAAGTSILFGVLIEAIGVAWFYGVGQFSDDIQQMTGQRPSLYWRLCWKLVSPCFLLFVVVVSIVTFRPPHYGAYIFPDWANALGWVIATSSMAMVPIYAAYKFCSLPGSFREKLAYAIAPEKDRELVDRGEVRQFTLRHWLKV
Molecule `CN(C)CC1(c2ccc3c(c2)OCO3)CCC(O)CC1` (centres unmarked) [Compound 238, 4-(benzo[d][1,3]dioxol-5-yl)-4-((dimethylamino)methyl)cyclohexanol] has an IC50 of 5720 nM. In the case of `CNCC1(c2ccc3c(c2)OCO3)CCC(C)(O)CC1` (centres unmarked) [Compound 239, 4-(benzo[d][1,3]dioxol-5-yl)-1-methyl-4-((methylamino)methyl)cyclohexanol], the IC50 is reported as 9450 nM. In the case of `CN(C)CC1(c2ccc3c(c2)OCO3)CCC(C)(O)CC1` (centres unmarked) [Compound 240, 4-(benzo[d][1,3]dioxol-5-yl)-4-((dimethylamino)methyl)-1-methylcyclohexanol], the IC50 is reported as 9030 nM. For `CNCC1(c2ccc3c(c2)OCO3)CCC(C)(O)CC1` (centres unmarked) [Compound 241, 4-(benzo[d][1,3]dioxol-5-yl)-1-methyl-4-((methylamino)methyl)cyclohexanol], the IC50 was > 10000 nM. With `CN(C)CC1(c2ccc3c(c2)OCO3)CCC(C)(O)CC1` (centres unmarked) [Compound 242, 4-(benzo[d][1,3]dioxol-5-yl)-4-((dimethylamino)methyl)-1-methylcyclohexanol] the IC50 was > 10000 nM. `CNCC1(c2ccc3ccccc3c2)CCC(O)(CF)CC1` (centres unmarked) [Compound 243, 1-(fluoromethyl)-4-((methylamino)methyl)-4-(naphthalen-2-yl)cyclohexanol] showed an IC50 of 851 nM. Molecule `CN(C)CC1(c2ccc3ccccc3c2)CCC(O)(CF)CC1` (centres unmarked) [Compound 244, 4-((dimethylamino)methyl)-1-(fluoromethyl)-4-(naphthalen-2-yl)cyclohexanol] has an IC50 of 334 nM. `CNCC1(c2ccc3ccccc3c2)CCC(O)(CF)CC1` (centres unmarked) [Compound 245, 1-(fluoromethyl)-4-((methylamino)methyl)-4-(naphthalen-2-yl)cyclohexanol] showed an IC50 of 2270 nM. In the case of `CN(C)CC1(c2ccc3ccccc3c2)CCC(O)(CF)CC1` (centres unmarked) [Compound 246, 4-((dimethylamino)methyl)-1-(fluoromethyl)-4-(naphthalen-2-yl)cyclohexanol], the IC50 is reported as 282 nM. In the case of `CN(C)CC1(c2ccc(OC(F)(F)F)cc2)CCC(C)(O)CC1` (centres unmarked) [Compound 248, 4-((dimethylamino)methyl)-1-methyl-4-(4-(trifluoromethoxy)phenyl)cyclohexanol], the IC50 is reported as 7250 nM. Work on `CNCC1(c2ccc3ccccc3c2)CCC(F)(F)CC1` [Compound 251, 1-(4,4-difluoro-1-(naphthalen-2-yl)cyclohexyl)-N-methylmethanamine] yielded an IC50 of 107 nM. `CN(C)CC1(c2ccc3ccccc3c2)CCC(F)(F)CC1` [Compound 252, 1-(4,4-difluoro-1-(naphthalen-2-yl)cyclohexyl)-N,N-dimethylmethanamine] was tested, and the IC50 was 6 nM and 5 nM. For `COC1CCC(CN)(c2ccc(Cl)c(Cl)c2)CC1` (centres unmarked) [Compound 255, (1-(3,4-dichlorophenyl)-4-methoxycyclohexyl)methanamine], the IC50 was 170 nM. `COC1CCC(CN)(c2ccc(Cl)c(Cl)c2)CC1` (centres unmarked) [Compound 257, (1-(3,4-dichlorophenyl)-4-methoxycyclohexyl)methanamine] showed an IC50 of 2000 nM. `CNCC1(c2ccc(Cl)c(Cl)c2)CCC(OC)CC1` (centres unmarked) [Compound 259, 1-(1-(3,4-dichlorophenyl)-4-methoxycyclohexyl)-N-methylmethanamine] gave an IC50 of 665 nM. `CN(C)CC1(c2ccc(Cl)c(Cl)c2)CCC(O)CC1` (centres unmarked) [Compound 263, 4-(3,4-dichlorophenyl)-4-((dimethylamino)methyl)cyclohexanol] gave an IC50 of 498 nM. Work on `CNCC1(c2ccc(Cl)c(Cl)c2)CCC(F)CC1` (centres unmarked) [Compound 264, 1-(1-(3,4-dichlorophenyl)-4-fluorocyclohexyl)-N-methylmethanamine] yielded an IC50 of 17 nM. `NCC1(c2ccc(Cl)c(Cl)c2)CCC(Oc2ccccc2)CC1` (centres unmarked) [Compound 265, (1-(3,4-dichlorophenyl)-4-phenoxycyclohexyl)methanamine] showed an IC50 of 1450 nM. Work on `NCC1(c2ccc(Cl)c(Cl)c2)CCC(F)(F)CC1` [Compound 267, (1-(3,4-dichlorophenyl)-4,4-difluorocyclohexyl)methanamine] yielded an IC50 of 147 nM. In the case of `CNCC1(c2ccc(Cl)c(Cl)c2)CCC2(CC1)OCCO2` [Compound 270, 1-(8-(3,4-dichlorophenyl)-1,4-dioxaspiro[4.5]decan-8-yl)-N-methylmethanamine], the IC50 is reported as 376 nM. In the case of `CNCC1(c2ccc(Cl)c(Cl)c2)CCC(C)(O)CC1` (centres unmarked) [Compound 273, 4-(3,4-dichlorophenyl)-1-methyl-4-((methylamino)methyl)cyclohexanol], the IC50 is reported as 528 nM. `CN(C)CC1(c2ccc(Cl)c(Cl)c2)CCC(C)(O)CC1` (centres unmarked) [Compound 274, 4-(3,4-dichlorophenyl)-4-((dimethylamino)methyl)-1-methylcyclohexanol] showed an IC50 of 251 nM.
